Experimental data: patent US12692274B2, “Tetrahydroisoquinoline derivatives for the treatment of red blood disorders and inflammatory diseases” (Sanofi, priority 2020, dated 2026)
Where “and” joins values, the source holds several entries; their conditions need not be identical. Equal values may be shown once.

Columns and labels:
[1] = target: HIS-Keap1 full length / Biotin-Nrf2 (16-mer) (Homo sapiens, UniProt Q14145); assay: biochemical
[2] = system: NQO1 activation in BEAS-2B cells; assay: BEAS-2B cellular MTT assay of NQO1 activation, 0% HSA; assay type: cell-based
Method: (§1) The growth rate of the BEAS-2B cells changed based on the lot of BEGM SingleQuots in the BEGM media. The cell growth rate was determined for each lot of SingleQuots. Ideally, cells were thawed into media with the new lot of SingleQuots and grown for two passages before testing; however, growing an active culture in the new lot of media for two to three passages before testing was also acceptable. Until the cell growth rate was determined, cells were seeded at different densities (cells/cm^2) in multiple tissue culture flasks in order to avoid the cells becoming more than 70% confluent. Cells should not go above 70% confluent as the cells differentiate when they become confluent. After the cells were grown in the new lot of media as described above, the number of cells per well needed to seed in the collagen plates was determined by seeding different numbers of cells per well and incubating for 48 hours. Cell confluency was checked after 48 hours and a cell number that results in just below to just above confluency was chosen for future plate seeding. Cell confluency in the assay plate was 95-100% confluent after 48 hours.
(§2) Cell media consists of BEBM basal media with the BEGM SingleQuots added. SingleQuots vials were thawed in the tissue culture hood, and GA-1000 (Gentamicin-Amphotericin) was not added.
(§3) If complete media was to be used immediately, BEBM basal media was warmed to room temperature in the hood, but not as high as 37° C. When the media was made for future use, SingleQuots were added to cold BEBM. One at a time, the SingleQuots components (except GA-1000) were added to the BEBM media. After removal of each component from the vial, the vial was rinsed with 0.5-1 mL of BEBM (depending on the volume the vial could hold) and added to the bottle of BEBM. Once all components were added, the label that comes with the SingleQuots kit was put on the bottle of media and the date was recorded. The bottle of media was mixed by gentle shaking. The media was not filtered. This media was stored at 4° C., with any leftover media disposed of one month after the date the SingleQuots were added.
(§4) BEAS-2B Cell Splitting Protocol:
(§5) First, Trypsin was warmed to 37° C. in the water bath. The media was then warmed to room temperature by letting it sit in the tissue culture hood, but not as high as 37° C. The media was aspirated from flask(s) and the flask(s) were washed with PBS. From 1 to 1.5 mL of warm trypsin were added to each flask and incubated at 37° C. until cells came off the flask on their own (~8-10 minutes), with no vigorous tapping on the flask to detach the cells.
(§6) Media was added to each flask to a total volume of 8-10 mL per flask and transferred to 15 mL conical tube(s). The cells were spun down at 120 g for 5 minutes, level 5 brake. The cells can be spun down between 100 and 150 g. Next the media was aspirated and the cell pellet was resuspended in fresh media by pipetting up and down and flicking the tube side to side. Any clumps of cells that remained were allowed to settle to the bottom of the tube before the top suspension was transferred into another tube, leaving about 1 mL of media in the original tube. The 1 mL of media and cell clumps were mixed with a single channel p1000 pipette, and any remaining clumps were removed before adding the cells in suspension to the other tube. The suspension was mixed with a pipette, an aliquot was removed, and the cells were counted. The amount of cells/cm^2 desired was calculated and the required volume of cells was added to tissue culture flasks. For example, use of SingleQuots with ~6000 cells/cm^2 was appropriate for a three day incubation and ~3000 cells/cm^2 for a five day incubation. Optimal cell density differed depending on lot of SingleQuots. The flasks were incubated at 37° C. in 5% CO2.
(§7) Day One: Seeding BEAS-2B Cells in Collagen Plates:
(§8) Plate(s) were either seeded with 0.3% or 0% HSA. While the protocol was similar for both conditions any differences are noted herein below. […]

[3] = system: NQO1 activation in BEAS-2B cells; assay: BEAS-2B cellular MTT assay of NQO1 activation, 0.3% HSA; assay type: cell-based
Method: as §1, §2, §3, §4, §5, §6, §7, §8

[4] = Homo sapiens, serum free, read-out: BEAS EC50 (nM) serum free
[5] = Homo sapiens, BEAS+, read-out: BEAS+ EC50
[6] = BEAS+ W, read-out: BEAS+ W EC50
[7] = Homo sapiens, BEAS+ W, read-out: BEAS+ W EC50
[8] = Homo sapiens, Serum Free W, read-out: BEAS EC50 (nM) Serum Free W
[9] = Serum Free W, read-out: BEAS EC50 (nM) Serum Free W
[10] = serum free, read-out: BEAS EC50 (nM) serum free

HIS-Keap1 full length / Biotin-Nrf2 (16-mer), sequence (Q14145 whole entry): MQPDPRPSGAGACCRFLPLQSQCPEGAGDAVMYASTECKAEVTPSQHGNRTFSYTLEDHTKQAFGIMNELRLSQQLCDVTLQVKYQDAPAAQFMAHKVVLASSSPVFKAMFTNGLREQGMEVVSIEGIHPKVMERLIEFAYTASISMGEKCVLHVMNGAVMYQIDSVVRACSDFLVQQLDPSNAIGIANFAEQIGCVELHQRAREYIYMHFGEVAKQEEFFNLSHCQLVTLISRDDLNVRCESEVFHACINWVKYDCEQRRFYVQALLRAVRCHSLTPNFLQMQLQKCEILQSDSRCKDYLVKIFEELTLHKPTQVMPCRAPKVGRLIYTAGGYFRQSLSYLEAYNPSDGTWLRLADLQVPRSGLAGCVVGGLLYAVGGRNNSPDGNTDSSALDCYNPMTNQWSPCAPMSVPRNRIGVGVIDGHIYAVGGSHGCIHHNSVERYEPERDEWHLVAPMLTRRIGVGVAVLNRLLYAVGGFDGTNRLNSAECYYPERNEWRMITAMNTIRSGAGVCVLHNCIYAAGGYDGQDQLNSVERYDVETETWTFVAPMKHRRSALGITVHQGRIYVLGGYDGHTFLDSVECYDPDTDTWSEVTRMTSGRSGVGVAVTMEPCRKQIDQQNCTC

Row | SMILES | IC50 [1] | EC50 [2, 4] | further results
1 | Cc1c2ccc(c1C)C(=O)N1CCc3ccc(cc3C1)C(CC(=O)O)c1ccc3c(nnn3CCCCCCO2)c1C (centres unmarked) [Compound 309] | < 0.1 nM | 3.2 nM | 
2 | Cc1c2oc3cc(ccc13)OCCCCCn1nnc3c(C)c(ccc31)C(CC(=O)O)c1ccc3c(c1)CN(CC3)C2=O (centres unmarked) [Compound 401] | 6.1 nM and 6.5 nM |  | EC50 [3, 5]: 7110 nM
3 | COc1cc2ccc1C(=O)N1CCc3ccc(cc3C1)C(CC(=O)O)c1cnc3c(nnn3CCCCC2)c1C (centres unmarked) [Compound 144] | 0.7 nM and 0.6 nM |  | EC50 [3, 6]: 60.2 nM; EC50 [3, 7]: 32.4 nM
4 | COc1cc2ccc1C(=O)N1CCc3ccc(cc3C1)C(CC(=O)O)c1cnc3c(nnn3CCCCCC2)c1C (centres unmarked) [Compound 103] | 1.2 nM |  | EC50 [2, 8]: 22.1 nM; EC50 [2, 9]: 36.8 nM
5 | Cc1c2cnc3c1nnn3CCCCCCc1ccc(cc1)C(=O)N1CCc3ccc(cc3C1)[C@@H]2CC(=O)O [Compound 138] | 0.1 nM | 0.5 nM | EC50 [2, 10]: 0.3 nM
6 | O=C(O)CC1c2ccc3c(c2)CN(CC3)C(=O)c2cccc(c2)OCCCCCCn2nnc3cc1ccc32 (centres unmarked) [Compound 403] | 146 nM and 192 nM |  | EC50 [3, 5]: > 10000 nM
7 | O=C(O)CC1c2cnc(nc2)OCCCCCc2ccc(c(Cl)c2)C(=O)N2CCc3ccc1cc3C2 (centres unmarked) [Compound 229] | 10.4 nM | 1430 nM | EC50 [2, 10]: 2230 nM
8 | Cc1cc2ccc1C(=O)N1CCc3ccc(cc3C1)[C@H](CC(=O)O)c1ccc3c(c1)nnn3CCCCCCO2 [Compound 326] | 2.7 nM and 0.8 nM |  | EC50 [3, 5]: 804 nM
9 | Cn1c2cc3cc(cnc31)CCCCCCn1nnc3c(Cl)c(ccc31)C(CC(=O)O)c1ccc3c(c1)CN(CC3)C2=O (centres unmarked) [Compound 199] | 3.7 nM and 3.6 nM | 12.7 nM | EC50 [2, 10]: 11.9 nM
10 | O=C(O)CC1c2ccc(nc2)OCCCCCc2ccc(nc2)C(=O)N2CCc3ccc1cc3C2 (centres unmarked) [Compound 193] | 29.1 nM and 31.5 nM | 1140 nM | EC50 [2, 10]: 768 nM
11 | O=C(O)CC1c2ccc3c(c2)CN(CC3)C(=O)c2ccc(cc2C(F)(F)F)OCCCCCCn2nnc3cc1ccc32 (centres unmarked) [Compound 308] | < 0.1 nM | 910 nM | 
12 | O=C(O)CC1c2cnc(nc2)OCCCCc2ccc(cc2Cl)C(=O)N2CCc3ccc1cc3C2 (centres unmarked) [Compound 221] | 216 nM |  | EC50 [3, 5]: > 10000 nM
13 | COC(=O)CC1c2ccc3c(c2)CN(CC3)C(=O)c2ccc(cc2C)OCCCCCn2nnc3cc1ccc32 (centres unmarked) [Compound 333] | 1820 nM and > 1000 nM and 1220 nM |  | EC50 [3, 5]: > 10000 nM
14 | Cc1c2ccc3c1nnn3CCCCc1ccc3ccc(cc3c1)C(=O)N1CCc3ccc(cc3C1)C2CC(=O)O (centres unmarked) [Compound 390] | 5.1 nM and 5.6 nM |  | EC50 ([3]; BEAS+, read-out: BEAS+ EC50): 5770 nM; EC50 [3, 5]: 3350 nM
15 | Cc1cc2cnc1OCC/C=C/Cc1ccc(cc1)C(=O)N1CCc3ccc(cc3C1)[C@@H]2[C@H](C)C(=O)O [Compound 74] | 24.4 nM and 36.4 nM |  | EC50 [2, 8]: 4.7 nM; EC50 [2, 9]: 7.1 nM
16 | O=C(O)CC1c2cnc(nc2)OCCCCCc2cc(F)c(c(F)c2)C(=O)N2CCc3ccc1cc3C2 (centres unmarked) [Compound 246] | 5.3 nM |  | EC50 ([3]; BEAS+, read-out: BEAS+ EC50): 1490 nM; EC50 [3, 5]: 992 nM
17 | Cc1c2ccc(c1C)C(=O)N1CCc3ccc(cc3C1)C(CC(=O)O)c1ccc3c(c1)nnn3CCCCCCO2 (centres unmarked) [Compound 312] | < 0.1 nM | 40.7 nM | 
18 | Cc1c2n(C)c3ccc(cc13)CCCCCCn1nnc3c(C)c(cnc31)[C@H](CC(=O)O)c1ccc3c(c1)CN(CC3)C2=O [Compound 68] | 0.3 nM |  | EC50 [2, 8]: 0.4 nM; EC50 [2, 9]: 0.3 nM
19 | COc1cc2ccc1C(=O)N1CCc3ccc(cc3C1)[C@@H](CC(=O)O)c1cnc3c(nnn3CCCCCC2)c1C [Compound 91] | 1.9 nM |  | EC50 [3, 6]: 155 nM; EC50 [3, 7]: 131 nM

Row | SMILES | IC50 [1] | EC50 [2, 4] | further results
20 | Cc1c2ccc3c1nnn3CCCCCc1ccc(cc1)C(=O)N1CCc3ccc(cc3C1)[C@H]2[C@@H](C)C(=O)O [Compound 130] | 0.6 nM and 0.4 nM |  | EC50 [3, 6]: 0.5 nM and 0.7 nM; EC50 [3, 7]: < 0.5 nM
21 | Cc1c2ccc3c1nnn3CCCCCc1cnc(nc1)C(=O)N1CCc3ccc(cc3C1)C2CC(=O)O (centres unmarked) [Compound 204] | 3 nM and 2.7 nM | 2880 nM | EC50 [2, 10]: 3290 nM
22 | Cc1c2ccc3c1nnn3CCCCCCc1ccc(c(F)c1)C(=O)N1CCc3ccc(cc3C1)[C@@H]2[C@H](C)C(=O)O [Compound 142] | 11.3 nM and 11.6 nM |  | EC50 [2, 8]: 34.5 nM; EC50 [2, 9]: 36.1 nM
23 | Cc1c2ccc3c1nnn3CCCCCCCc1ccc(cc1)C(=O)N1CCc3ccc(cc3C1)C2CC(=O)O (centres unmarked) [Compound 313] | < 0.1 nM and 0.4 nM | 8.8 nM | 
24 | Cc1c2ccc3c1nnn3CCCOCCOc1cc(F)c(c(F)c1)C(=O)N1CCc3ccc(cc3C1)C2CC(=O)O (centres unmarked) [Compound 368, 2-(20,32-difluoro-34-methyl-22-oxo-14,17-dioxa-8,9,10,23-tetrazahexacyclo[21.5.3.218,21.13,7.06,10.026,30]tetratriaconta-1(29),3(34),4,6,8,18(33),19,21(32),26(30),27-decaen-2-yl)acetic Acid] | 0.1 nM and 0.2 nM |  | EC50 ([3]; BEAS+, read-out: BEAS+ EC50): 140 nM; EC50 [3, 5]: 114 nM
25 | Cc1cc2cnc1OCCCCCc1ccc(cc1)C(=O)N1CCc3ccc(cc3C1)[C@H]2[C@@H](C)C(=O)O [Compound 76] | > 9900 nM |  | EC50 [3, 7]: > 10000 nM
26 | Cc1c2ccc3c1nnn3CCC/C=C/COc1cnc(nc1)C(=O)N1CCc3ccc(cc3C1)C2CC(=O)O (centres unmarked) [Compound 400] | 2 nM |  | EC50 ([3]; BEAS+, read-out: BEAS+ EC50): 29.3 nM; EC50 [3, 5]: 31.6 nM
27 | Cc1c2ccc3c1ncn3CCCCCCc1ccc(cc1)C(=O)N1CCc3ccc(cc3C1)[C@H]2CC(=O)O (single isomer, unassigned) [Compound 385] | 238 nM and 244 nM | 2250 nM | EC50 [2, 10]: 2850 nM
28 | O=C(O)CC1c2cnc(nc2)OCCCCc2cc(F)c(c(F)c2)C(=O)N2CCc3ccc1cc3C2 (centres unmarked) [Compound 242] | > 1000 nM |  | EC50 [3, 5]: > 10000 nM
29 | Cc1cc2ccc1C(=O)N1CCc3ccc(cc3C1)C(CC(=O)O)c1ccc3c(nnn3CCCOCCO2)c1C (centres unmarked) [Compound 374] | 1 nM |  | EC50 [3, 6]: 297 nM; EC50 [3, 7]: 284 nM
30 | O=C(O)CC1c2ccc3c(c2)CN(CC3)C(=O)c2ccc(cn2)OCCCCCCn2nnc3cc1ccc32 (centres unmarked) [Compound 328] | 0.9 nM and < 0.1 nM | 6710 nM | 
31 | O=C(O)CC1c2ccc3c(c2)CN(CC3)C(=O)c2ccc(cc2F)OCCCCCCn2nnc3c(Cl)c1ccc32 (centres unmarked) [Compound 250] | 2 nM and 1.9 nM | 16.4 nM | EC50 [2, 10]: 16.5 nM
32 | Cc1c2ccc3c1nnn3C/C=C/CCCc1ccc(c(F)c1)C(=O)N1CCc3ccc(cc3C1)C2C(C)C(=O)O (centres unmarked) [Compound 375] | 1.4 nM |  | EC50 [2, 8]: 2.9 nM
33 | C[C@H](C(=O)O)[C@H]1c2ccc(nc2)OCCCCCc2ccc(cc2)C(=O)N2CCc3ccc1cc3C2 [Compound 60] | 580 nM and 614 nM |  | EC50 [2, 8]: 333 nM; EC50 [2, 9]: 258 nM and 226 nM
34 | Cc1cc2ncc1[C@@H]([C@@H](C)C(=O)O)c1ccc3c(c1)CN(CC3)C(=O)c1ccc(cc1)C/C=C/CCO2 [Compound 61] | 720 nM and 651 nM |  | EC50 [2, 8]: 422 nM; EC50 [2, 9]: 245 nM
35 | COc1cc2ccc1CCCCCn1nnc3c(C)c(ccc31)C(CC(=O)O)c1ccc3c(c1)CN(CC3)C2=O (centres unmarked) [Compound 190] | 4.2 nM and 4.4 nM and 1.1 nM (2×) |  | EC50 [2, 10]: 1 nM
36 | Cc1c2cnc3c1nnn3CCCCCCc1ccc(c(F)c1)C(=O)N1CCc3ccc(cc3C1)C2CC(=O)O (centres unmarked) [Compound 146] | 0.1 nM | 0.2 nM | 
37 | Cc1c2ccc3c1nnn3CCCCCC(F)(F)Oc1ccc(cc1)C(=O)N1CCc3ccc(cc3C1)C2CC(=O)O (centres unmarked) [Compound 311] | 0.1 nM and < 0.1 nM | 10.4 nM | 
